Data published in paper PMC10838382 (Cancer Drug Resistance, 2024).
Read-outs that look alike come from different tables or passages of the source.

Experiments:
15 tumor cell lines = assay: 2D proliferation assay (CellTiter-Blue), panel of 15 tumor cell lines; conditions: read-out: mean relative IC50
DU-145DOC10 [1] = assay: 2D proliferation assay, docetaxel-resistant subline; type: cell-based, human; conditions: for IC50: Homo sapiens
22Rv1DOC8 [2] = assay: as above; type: cell-based, human; conditions: for IC50: Homo sapiens
DU-145DOC10 [3] = assay: 3D clonogenic assay (soft agar); type: cell-based, human; conditions: for Relative resistance: DU-145DOC10 vs DU-145
MAXFTN MCF 10A = assay: cells; conditions: Homo sapiens, read-out: Relative docetaxel IC50
OVXF EFO-27 = assay: 2D proliferation assay (CellTiter-Blue); conditions: Homo sapiens, EFO-27, read-out: Relative docetaxel IC50
PC-3DOC3 = assay: 2D proliferation assay, docetaxel-exposed subline; type: cell-based, human
MAXFTN CAL-51 = assay: cells; conditions: Homo sapiens, CAL-51, read-out: Relative docetaxel IC50
PC-3M = assay: 2D proliferation assay (CellTiter-Blue); conditions: Homo sapiens, read-out: Relative docetaxel IC50
22Rv1 = assay: 3D clonogenic assay (soft agar); conditions: Homo sapiens, 22Rv1, read-out: Docetaxel IC50, 22Rv1, 3D clonogenic assay
LXFA EKVX = assay: cells; conditions: Homo sapiens, read-out: Relative docetaxel IC50
OVXF NCI-ADR-RES = assay: cells; conditions: Homo sapiens, read-out: Relative docetaxel IC50
OVXF 899 = assay: cells; conditions: read-out: Relative docetaxel IC50
DU-145 = assay: 3D clonogenic assay (soft agar); conditions: Homo sapiens, DU-145, read-out: Docetaxel IC50, DU-145, 3D clonogenic assay
GXA NUGC-4 = assay: cells; conditions: Homo sapiens, NUGC-4, read-out: Relative docetaxel IC50
PC-3 = assay: 2D proliferation assay (CellTiter-Blue); type: cell-based; conditions: Homo sapiens
PRXF 22Rv1 = assay: 2D proliferation assay (CellTiter-Blue); type: cell-based; conditions: Homo sapiens
Caco-2 cell monolayers = assay: Bidirectional permeability assay across Caco-2 monolayers; type: in vitro ADME, human; conditions: for ER: inhibitor where named: valspodar 10 μM or ritonavir 50 μM
Experimental: (§1) Samples were analyzed using LC-MS/MS.
(§2) The medium was changed 24 h before the experiment. […] The bioanalysis of docetaxel was performed with the .
(§3) The following equation was used to calculate apparent permeability coefficient (Papp):
(§4) dQ: amount of transporter test drug in pmol; dT: incubation time in seconds; A: surface of porous membrane in cm^2 (standard: 0.7); C0: initial concentration of test agent in the donor chamber in pmol/cm^3.

[4] = as above; type: in vitro ADME, human; conditions: human
Experimental: as §1, §2, §3, §4

PRXF DU-145 = assay: 2D proliferation assay (CellTiter-Blue); type: cell-based, human; conditions: Homo sapiens
LXFA 737 = assay: 2D proliferation assay (CellTiter-Blue); conditions: read-out: Relative docetaxel IC50
22Rv1DOC8 [5] = assay: 3D clonogenic assay (soft agar); type: cell-based, human; conditions: for Relative resistance: 22Rv1DOC8 vs 22Rv1; for IC50: Homo sapiens
MAXFLB MCF7 = assay: cells; conditions: Homo sapiens, MCF7, read-out: Relative docetaxel IC50
MAXFTN MX1 = assay: 2D proliferation assay (CellTiter-Blue); conditions: read-out: Relative docetaxel IC50
GXA 3011 = assay: cells; conditions: read-out: Relative docetaxel IC50
[6] = docetaxel + elacridar 1 µM, 3D clonogenic assay
[7] = docetaxel + ritonavir 10 µM, 3D clonogenic assay
[8] = docetaxel without elacridar, 3D clonogenic assay
[9] = docetaxel without ritonavir, 3D clonogenic assay
[10] = without elacridar (elacridar experiment)
[11] = without ritonavir (ritonavir experiment)

IC50 (15 tumor cell lines): 2.6 nM
IC50 (DU-145DOC10 [1]; DU-145DOC10 (passage 10 nM docetaxel), 2D proliferation assay, read-out: Docetaxel IC50): 17.8 nM
IC50 (DU-145DOC10 [1]; DU-145DOC10, 2D culture, Figure 1, read-out: IC 50): 17.8 nM
IC50 (22Rv1DOC8 [2]; 22Rv1-DOC8 (passage 8 nM docetaxel), 2D proliferation assay, read-out: Docetaxel IC50): 134 nM
IC50 (22Rv1DOC8 [2]; 22Rv1DOC8, 2D culture, Figure 1, read-out: IC 50): 134 nM
IC50 (DU-145DOC10 [3]; DU-145DOC10, 3D clonogenic assay, without elacridar (elacridar experiment), read-out: Docetaxel IC50): 11.7 nM
fold decrease of relative IC50 of docetaxel by elacridar (DU-145DOC10 [3]; DU-145DOC10, elacridar 1 µM as printed (lower of two concentrations), 3D clonogenic assay): 6 fold
fold decrease of relative IC50 of docetaxel by elacridar (DU-145DOC10 [3]; DU-145DOC10, elacridar 10 µM as printed (higher of two concentrations), 3D clonogenic assay): 7.1 fold
fold lower docetaxel IC50 on addition of ritonavir (DU-145DOC10 [3]; DU-145DOC10, ritonavir 10 µM, 3D clonogenic assay): 3.4 fold
IC50 (DU-145DOC10 [3]; Homo sapiens, DU-145DOC10, 3D clonogenic assay, + elacridar 1 µM, read-out: Docetaxel IC50): 1.6 nM
IC50 (DU-145DOC10 [3]; Homo sapiens, DU-145DOC10, 3D clonogenic assay, + elacridar, first of two values both printed as 1 μM (Figure 6 legend), read-out: Docetaxel IC50): 1.9 nM
IC50 (DU-145DOC10 [3]; Homo sapiens, DU-145DOC10, 3D clonogenic assay, + ritonavir 10 µM, read-out: Docetaxel IC50): 2.8 nM
IC50 (DU-145DOC10 [3]; Homo sapiens, DU-145DOC10, 3D clonogenic assay, without elacridar (elacridar experiment), read-out: Docetaxel IC50): 11.4 nM
IC50 (DU-145DOC10 [3]; Homo sapiens, DU-145DOC10, 3D clonogenic assay, without ritonavir (ritonavir experiment), read-out: Docetaxel IC50): 9.5 nM
IC50 (DU-145DOC10 [3]; Homo sapiens, DU-145DOC10, docetaxel alone, Figure 4A, read-out: IC 50): 9.37 nM
IC50 (DU-145DOC10 [3]; Homo sapiens, DU-145DOC10, docetaxel alone, Figure 6A, read-out: IC 50): 11.4 nM
IC50 (MAXFTN MCF 10A): 0.7 nM
IC50 (PC-3DOC3; Homo sapiens, PC-3DOC3 (passage 2 nM docetaxel)): 4.4 nM
IC50 (MAXFTN CAL-51): 1.7 nM
IC50 (PC-3M): 2.4 nM
IC50 (22Rv1; + ritonavir 10 µM): 1.8 nM
IC50 (22Rv1; [10]): 1.3 nM
IC50 (22Rv1; [11]): 1.3 nM
IC50 (LXFA EKVX): 1.9 nM
IC50 (OVXF NCI-ADR-RES): > 100 nM
IC50 (OVXF 899): 20.2 nM
IC50 (DU-145; + ritonavir 10 µM): 1.7 nM
IC50 (DU-145; [10]): 1.1 nM
IC50 (DU-145; [11]): 2.9 nM
IC50 (GXA NUGC-4): 5.5 nM
IC50 (PC-3; PC-3, read-out: Relative docetaxel IC50): 1.9 nM
IC50 (PRXF 22Rv1; 22Rv1, 2D culture, Figure 1, read-out: IC 50): 0.98 nM
IC50 (PRXF 22Rv1; PRXF 22Rv1, 2D proliferation assay, read-out: Relative docetaxel IC50): 1.5 nM
ER values (Caco-2 cell monolayers; both at 5 and 10 μM docetaxel, no inhibitor): > 2
ER (Caco-2 cell monolayers; docetaxel 5 μM, incubation 60 min): 69.46 ± 13.24
ER (Caco-2 cell monolayers; docetaxel 5 μM, incubation 120 min): 43.85 ± 3.80
ER (Caco-2 cell monolayers; docetaxel 10 μM, incubation 120 min): 32.66 ± 5.35
Papp A→B at 60 min, 5 μM ([4]; Caco-2): 0.29 ± 0.06 ×10⁻⁶ cm/s
Papp A→B at 60 min, 10 μM ([4]; Caco-2): 0.66 ± 0.02 ×10⁻⁶ cm/s
Papp A→B at 120 min, 5 μM ([4]; Caco-2): 0.81 ± 0.06 ×10⁻⁶ cm/s
Papp A→B at 120 min, 10 μM ([4]; Caco-2): 0.91 ± 0.15 ×10⁻⁶ cm/s
Papp B→A at 60 min, 5 μM ([4]; Caco-2): 20.3 ± 0.25 ×10⁻⁶ cm/s
Papp B→A at 60 min, 10 μM ([4]; Caco-2): 21 ± 0.78 ×10⁻⁶ cm/s
Papp B→A at 120 min, 5 μM ([4]; Caco-2): 35.4 ± 1.83 ×10⁻⁶ cm/s
Papp B→A at 120 min, 10 μM ([4]; Caco-2): 29.6 ± 0.8 ×10⁻⁶ cm/s
efflux ratio at 60 min, 5 μM ([4]; Caco-2, docetaxel 5 μM, incubation 60 min, inhibitor where named: valspodar 10 μM or ritonavir 50 μM, read-out: ER): 69.5
efflux ratio at 120 min, 5 μM ([4]; Caco-2, docetaxel 5 μM, incubation 120 min, inhibitor where named: valspodar 10 μM or ritonavir 50 μM, read-out: ER): 43.9
efflux ratio at 60 min, 10 μM ([4]; Caco-2, docetaxel 10 μM, incubation 60 min, inhibitor where named: valspodar 10 μM or ritonavir 50 μM, read-out: ER): 31.8 ± 1.54
efflux ratio at 120 min, 10 μM ([4]; Caco-2, docetaxel 10 μM, incubation 120 min, inhibitor where named: valspodar 10 μM or ritonavir 50 μM, read-out: ER): 32.7
IC50 (PRXF DU-145; DU-145, DU-145, 2D culture, Figure 1, read-out: IC 50): 0.81 nM
IC50 (PRXF DU-145; DU-145, PRXF DU-145, 2D proliferation assay, read-out: Relative docetaxel IC50): 0.9 nM
fold decrease of relative IC50 of docetaxel by elacridar (22Rv1DOC8 [5]; 22Rv1DOC8, elacridar 1 µM as printed (lower of two concentrations), 3D clonogenic assay): 91 fold
fold decrease of relative IC50 of docetaxel by elacridar (22Rv1DOC8 [5]; 22Rv1DOC8, elacridar 10 µM as printed (higher of two concentrations), 3D clonogenic assay): 116 fold
fold decrease of docetaxel IC50 by ritonavir (22Rv1DOC8 [5]; 22Rv1DOC8, ritonavir 32 μM, 3D clonogenic assay): 84 fold
IC50 (22Rv1DOC8 [5]; 22Rv1DOC8, 3D clonogenic assay, + elacridar 1 µM, read-out: Docetaxel IC50): 1.3 nM
IC50 (22Rv1DOC8 [5]; 22Rv1DOC8, 3D clonogenic assay, + ritonavir 10 µM, read-out: Docetaxel IC50): 46.2 nM
IC50 (22Rv1DOC8 [5]; 22Rv1DOC8, 3D clonogenic assay, + ritonavir 32 µM, read-out: Docetaxel IC50): 3 nM
IC50 (22Rv1DOC8 [5]; 22Rv1DOC8, 3D clonogenic assay, without elacridar (elacridar experiment), read-out: Docetaxel IC50): 134 nM
IC50 (22Rv1DOC8 [5]; 22Rv1DOC8, 3D clonogenic assay, without ritonavir (32 μM ritonavir experiment, Figure 5), read-out: relative IC50 value of docetaxel): 219 nM
IC50 (22Rv1DOC8 [5]; 22Rv1DOC8, 3D clonogenic assay, without ritonavir (ritonavir experiment), read-out: Docetaxel IC50): 54.6 nM
IC50 (22Rv1DOC8 [5]; 22Rv1DOC8, docetaxel alone, Figure 5A, read-out: IC 50): 224 nM
IC50 (MAXFLB MCF7): 1.1 nM
IC50 (GXA 3011): 0.5 nM
SMILES: CC(=O)O[C@@]12CO[C@@H]1C[C@H](O)[C@@]1(C)C(=O)[C@H](O)C3=C(C)[C@@H](OC(=O)[C@H](O)[C@@H](NC(=O)OC(C)(C)C)c4ccccc4)C[C@@](O)([C@@H](OC(=O)c4ccccc4)[C@H]21)C3(C)C [Docetaxel]
Relative resistance (DU-145DOC10 [1]; DU-145DOC10 vs DU-145, 2D proliferation assay): 22.3
Relative resistance (22Rv1DOC8 [2]; 22Rv1-DOC8 vs 22Rv1, 2D proliferation assay): 133.6
Relative resistance (DU-145DOC10 [3]; [6]): 1.5
Relative resistance (DU-145DOC10 [3]; [7]): 1.0
Relative resistance (DU-145DOC10 [3]; [8]): 10.6
Relative resistance (DU-145DOC10 [3]; [9]): 3.3
IC50 (OVXF EFO-27): 0.7 nM
Relative resistance (PC-3DOC3; PC-3DOC3 vs PC-3): 4.0
IC50 (PC-3; PC-3 parental, read-out: Docetaxel IC50): 1.1 nM
IC50 (PRXF 22Rv1; 22Rv1 parental, 2D proliferation assay, read-out: Docetaxel IC50): 1 nM
IC50 (PRXF DU-145; DU-145, DU-145 parental, 2D proliferation assay, read-out: Docetaxel IC50): 0.8 nM
IC50 (LXFA 737): 2.2 nM
Relative resistance (22Rv1DOC8 [5]; [6]): 1.0
Relative resistance (22Rv1DOC8 [5]; [7]): 35.5
Relative resistance (22Rv1DOC8 [5]; docetaxel + ritonavir 10 µM, 3D clonogenic assay, listed as docetaxel): 36
Relative resistance (22Rv1DOC8 [5]; docetaxel + ritonavir 32 µM, 3D clonogenic assay): 2.3
Relative resistance (22Rv1DOC8 [5]; [8]): 103.1
Relative resistance (22Rv1DOC8 [5]; [9]): 42.0
IC50 (MAXFTN MX1): 1.9 nM
